Where “and” joins values, the source holds several entries; their conditions need not be identical. Equal values may be shown once.
Assays:
Nluc-A3AR M174A^5.35 = target: T1, Nluc-A3AR M174A^5.35 (Homo sapiens, UniProt P0DMS8, M174A); assay: biochemical; format: binding; details: M174A, read-out: normalised XAC-630 binding
T1 construct: expressed in transfected cells; host or cells: HEK293a
Description: (§1) All experiments were performed in duplicate.
(§2) Data were expressed as the mean ± standard error. All binding and Trupath data were analysed using the nonlinear regression curve-fitting programme with Prism 10 (GraphPad, San Diego, CA, USA). For nanoBRET saturation binding experiments, specific binding was calculated by subtracting non-specific binding (defined as binding in the presence of 10 µM MRS1220) from total binding. Specific binding data in each experiment were then normalised to the maximal binding (Bmax) of WT and fit to a one-site specific binding equation: Y =Bmax*[X]/(Kd + [X]). For nanoBRET competition binding experiments, data were normalised to total and non-specific binding responses and fit to a one-site—Fit Ki equation. Trupath's experimental data was baseline-corrected to the initial four baseline reads and then adjusted to the buffer control response. The area under the curve (AUC) for each response was calculated and plotted with a non-linear regression curve (log[agonist] vs response, three-parameter model), using the equation: Y = Bottom + (Top–Bottom)/(1 + 10^((LogEC50-X))). Here, X represents the log dose of the agonist, Y is the BRET2 AUC response, Top and Bottom are the curve plateaus, and EC50 is the agonist concentration yielding a response halfway between the Bottom and Top values. […] The efficacy of the agonists (τA) was separately calculated using the Black–Leff operational model of agonism[79] using KA values from Table 2 and then corrected for receptor expression relative to WT using Bmax values from Table 1[80]. Significant differences vs WT were determined by one-way ANOVA with a Dunnett’s multiple comparison test.

A3AR H95F^3.37 = target: T2, A3AR H95F^3.37 (Homo sapiens, UniProt P0DMS8, H95F); assay: Gαi1 activation, TruPath BRET assay in HEK293a cells; format: cell-based
T2 construct: expressed in transfected cells; host or cells: HEK293a
T2 sequence (P0DMS8 1-318 H95F): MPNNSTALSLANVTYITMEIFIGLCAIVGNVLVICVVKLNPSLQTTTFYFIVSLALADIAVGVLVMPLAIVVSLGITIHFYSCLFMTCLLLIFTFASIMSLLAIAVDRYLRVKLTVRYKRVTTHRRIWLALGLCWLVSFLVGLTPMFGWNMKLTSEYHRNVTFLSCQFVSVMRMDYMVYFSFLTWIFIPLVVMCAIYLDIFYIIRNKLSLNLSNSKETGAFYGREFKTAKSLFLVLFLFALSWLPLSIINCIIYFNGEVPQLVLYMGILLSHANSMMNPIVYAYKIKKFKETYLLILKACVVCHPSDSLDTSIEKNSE
Description: PEI was added at a 6:1 PEI-to-DNA ratio. Two days post-transfection, plates were washed twice with BRET buffer (HBSS with 10 mM HEPES, pH 7.4). After a 30-min incubation at 37 °C, plates were placed in a PHERAstar plate reader at 37 °C, and four baseline readings were taken using BRET2 filters at 410 ± 80 nm and 515 ± 30 nm. […] BRET2 ratios were calculated as the ratio of GFP2 emission (515 ± 30 nm) to RLuc8 emission (410 ± 80 nm).
Data were expressed as the mean ± standard error. All binding and Trupath data were analysed using the nonlinear regression curve-fitting programme with Prism 10 (GraphPad, San Diego, CA, USA). For nanoBRET saturation binding experiments, specific binding was calculated by subtracting non-specific binding (defined as binding in the presence of 10 µM MRS1220) from total binding. Specific binding data in each experiment were then normalised to the maximal binding (Bmax) of WT and fit to a one-site specific binding equation: Y =Bmax*[X]/(Kd + [X]). For nanoBRET competition binding experiments, data were normalised to total and non-specific binding responses and fit to a one-site—Fit Ki equation. Trupath's experimental data was baseline-corrected to the initial four baseline reads and then adjusted to the buffer control response. The area under the curve (AUC) for each response was calculated and plotted with a non-linear regression curve (log[agonist] vs response, three-parameter model), using the equation: Y = Bottom + (Top–Bottom)/(1 + 10^((LogEC50-X))). Here, X represents the log dose of the agonist, Y is the BRET2 AUC response, Top and Bottom are the curve plateaus, and EC50 is the agonist concentration yielding a response halfway between the Bottom and Top values. To determine efficacy values. The efficacy of the agonists (τA) was separately calculated using the Black–Leff operational model of agonism[79] using KA values from Table 2 and then corrected for receptor expression relative to WT using Bmax values from Table 1[80]. Significant differences vs WT were determined by one-way ANOVA with a Dunnett’s multiple comparison test. Significance levels are indicated as follows: P ≤ 0.0001****, P = 0.0001–0.001***, P = 0.001–0.01**, and P = 0.01–0.05*.

Nluc-A3AR S73A^2.65 = target: T3, Nluc-A3AR S73A^2.65 (Homo sapiens, UniProt P0DMS8, S73A); assay: biochemical; format: binding; details: S73A, read-out: normalised XAC-630 binding
T3 construct: expressed in transfected cells; host or cells: HEK293a
T3 sequence (P0DMS8 whole entry S73A): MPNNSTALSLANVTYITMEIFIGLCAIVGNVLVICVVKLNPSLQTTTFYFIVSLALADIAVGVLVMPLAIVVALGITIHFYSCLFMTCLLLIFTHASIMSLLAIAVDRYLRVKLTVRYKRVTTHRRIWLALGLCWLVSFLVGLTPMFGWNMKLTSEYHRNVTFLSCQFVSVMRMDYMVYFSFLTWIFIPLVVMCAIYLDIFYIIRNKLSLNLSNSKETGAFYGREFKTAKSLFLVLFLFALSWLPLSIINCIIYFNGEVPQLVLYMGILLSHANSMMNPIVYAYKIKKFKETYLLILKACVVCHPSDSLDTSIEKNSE
Description: as §1
(§3) Data were expressed as the mean ± standard error. All binding and Trupath data were analysed using the nonlinear regression curve-fitting programme with Prism 10 (GraphPad, San Diego, CA, USA). For nanoBRET saturation binding experiments, specific binding was calculated by subtracting non-specific binding (defined as binding in the presence of 10 µM MRS1220) from total binding. Specific binding data in each experiment were then normalised to the maximal binding (Bmax) of WT and fit to a one-site specific binding equation: Y =Bmax*[X]/(Kd + [X]). For nanoBRET competition binding experiments, data were normalised to total and non-specific binding responses and fit to a one-site—Fit Ki equation. […] Significant differences vs WT were determined by one-way ANOVA with a Dunnett’s multiple comparison test.

A3AR S271A^7.42 = A3AR S271A^7.42 (Homo sapiens, UniProt P0DMS8, S271A); assay: Gαi1 activation, TruPath BRET assay in HEK293a cells
Chain of A3AR S271A^7.42 (P0DMS8 whole entry S271A): as the sequence (P0DMS8 whole entry S73A) above, with A73S, S271A counted along it
Description: (§4) Two days post-transfection, plates were washed twice with BRET buffer (HBSS with 10 mM HEPES, pH 7.4). After a 30-min incubation at 37 °C, plates were placed in a PHERAstar plate reader at 37 °C, and four baseline readings were taken using BRET2 filters at 410 ± 80 nm and 515 ± 30 nm. […] BRET2 ratios were calculated as the ratio of GFP2 emission (515 ± 30 nm) to RLuc8 emission (410 ± 80 nm).
(§5) Data were expressed as the mean ± standard error. All binding and Trupath data were analysed using the nonlinear regression curve-fitting programme with Prism 10 (GraphPad, San Diego, CA, USA). […] Trupath's experimental data was baseline-corrected to the initial four baseline reads and then adjusted to the buffer control response. The area under the curve (AUC) for each response was calculated and plotted with a non-linear regression curve (log[agonist] vs response, three-parameter model), using the equation: Y = Bottom + (Top–Bottom)/(1 + 10^((LogEC50-X))). Here, X represents the log dose of the agonist, Y is the BRET2 AUC response, Top and Bottom are the curve plateaus, and EC50 is the agonist concentration yielding a response halfway between the Bottom and Top values. […] Significant differences vs WT were determined by one-way ANOVA with a Dunnett’s multiple comparison test.

Nluc-A3AR WT = target: T4, Nluc-A3AR WT (Homo sapiens, UniProt P0DMS8); assay: biochemical; format: binding; details: WT, read-out: normalised XAC-630 binding
T4 construct: expressed in transfected cells; host or cells: HEK293a
T4 sequence (P0DMS8 whole entry): as the sequence (P0DMS8 whole entry S73A) above, with A73S counted along it
Description: as §1, §3

Nluc-A3AR Y15A^1.35 = target: T5, Nluc-A3AR Y15A^1.35 (Homo sapiens, UniProt P0DMS8, Y15A); assay: biochemical; format: binding; details: Y15A; log[adenosine] -8; read-out: normalised XAC-630 binding
T5 construct: expressed in transfected cells; host or cells: HEK293a
T5 sequence (P0DMS8 whole entry Y15A): as the sequence (P0DMS8 whole entry S73A) above, with Y15A, A73S counted along it
Description: as §1, §2

Nluc-A3AR Y265A^7.36 = target: T6, Nluc-A3AR Y265A^7.36 (Homo sapiens, UniProt P0DMS8, Y265A); assay: biochemical; format: binding; details: Y265A, read-out: normalised XAC-630 binding
T6 construct: expressed in transfected cells; host or cells: HEK293a
T6 sequence (P0DMS8 whole entry Y265A): as the sequence (P0DMS8 whole entry S73A) above, with A73S, Y265A counted along it
Description: as §1, §2

Nluc-A3AR H95A^3.37 = target: T7, Nluc-A3AR H95A^3.37 (Homo sapiens, UniProt P0DMS8, H95A); assay: biochemical; format: binding; details: H95A, read-out: normalised XAC-630 binding
T7 construct: expressed in transfected cells; host or cells: HEK293a
T7 sequence (P0DMS8 whole entry H95A): as the sequence (P0DMS8 whole entry S73A) above, with A73S, H95A counted along it
Description: as §1
(§6) Data were expressed as the mean ± standard error. All binding and Trupath data were analysed using the nonlinear regression curve-fitting programme with Prism 10 (GraphPad, San Diego, CA, USA). For nanoBRET saturation binding experiments, specific binding was calculated by subtracting non-specific binding (defined as binding in the presence of 10 µM MRS1220) from total binding. Specific binding data in each experiment were then normalised to the maximal binding (Bmax) of WT and fit to a one-site specific binding equation: Y =Bmax*[X]/(Kd + [X]). For nanoBRET competition binding experiments, data were normalised to total and non-specific binding responses and fit to a one-site—Fit Ki equation. Trupath's experimental data was baseline-corrected to the initial four baseline reads and then adjusted to the buffer control response. The area under the curve (AUC) for each response was calculated and plotted with a non-linear regression curve (log[agonist] vs response, three-parameter model), using the equation: Y = Bottom + (Top–Bottom)/(1 + 10^((LogEC50-X))). Here, X represents the log dose of the agonist, Y is the BRET2 AUC response, Top and Bottom are the curve plateaus, and EC50 is the agonist concentration yielding a response halfway between the Bottom and Top values. […] Significant differences vs WT were determined by one-way ANOVA with a Dunnett’s multiple comparison test. Significance levels are indicated as follows: P ≤ 0.0001****, P = 0.0001–0.001***, P = 0.001–0.01**, and P = 0.01–0.05*.

Nluc-A3AR T94A^3.36 = target: T8, Nluc-A3AR T94A^3.36 (Homo sapiens, UniProt P0DMS8, T94A); assay: biochemical; format: binding; details: T94A, read-out: normalised XAC-630 binding
T8 construct: expressed in transfected cells; host or cells: HEK293a
T8 sequence (P0DMS8 whole entry T94A): as the sequence (P0DMS8 whole entry S73A) above, with A73S, T94A counted along it
Description: as §1, §2

Nluc-A3AR H95F^3.37 = target: T9, Nluc-A3AR H95F^3.37 (Homo sapiens, UniProt P0DMS8, H95F); assay: biochemical; format: binding; details: H95F; log[adenosine] -8; read-out: normalised XAC-630 binding
T9 construct: expressed in transfected cells; host or cells: HEK293a
Description: as §1, §6

Nluc-A3AR V169E^45.53 = target: T10, Nluc-A3AR V169E^45.53 (Homo sapiens, UniProt P0DMS8, V169E); assay: biochemical; format: binding; details: V169E, read-out: normalised XAC-630 binding
T10 construct: expressed in transfected cells; host or cells: HEK293a
T10 sequence (P0DMS8 whole entry V169E): as the sequence (P0DMS8 whole entry S73A) above, with A73S, V169E counted along it
Description: as §1, §6

A3AR S73A^2.65 = target: T11, A3AR S73A^2.65 (Homo sapiens, UniProt P0DMS8, S73A); assay: Gαi1 activation, TruPath BRET assay in HEK293a cells; format: cell-based
T11 construct: expressed in transfected cells; host or cells: HEK293a
T11 sequence (P0DMS8 whole entry S73A): as the sequence (P0DMS8 whole entry S73A) above
Description: as §4, §5

Nluc-A3AR S271A^7.42 = target: T12, Nluc-A3AR S271A^7.42 (Homo sapiens, UniProt P0DMS8, S271A); assay: biochemical; format: binding; details: S271A, read-out: normalised XAC-630 binding
T12 construct: expressed in transfected cells; host or cells: HEK293a
T12 sequence (P0DMS8 whole entry S271A): as the sequence (P0DMS8 whole entry S73A) above, with A73S, S271A counted along it
Description: as §1, §3

T1 sequence (P0DMS8 whole entry M174A): as the sequence (P0DMS8 whole entry S73A) above, with A73S, M174A counted along it

SMILES: Nc1ncnc2c1ncn2[C@@H]1O[C@H](CO)[C@@H](O)[C@H]1O [Adenosine, adenosine]
- remaining activity at 1 µM (Nluc-A3AR M174A^5.35; log[adenosine] -6): 100%
- remaining activity at 0.01 µM (Nluc-A3AR M174A^5.35; log[adenosine] -8): 101%
- log τ (efficacy, operational model, corrected for receptor expression) (A3AR H95F^3.37): N.R.
- ∆∆BRET Emax (A3AR H95F^3.37): N.R
- Gαi1 activation response (Figure 7F), individual replicates (A3AR H95F^3.37; log [agonist] -3): 0.03876 and 0.1313 and 0.08684
- Gαi1 activation response (Figure 7F), individual replicates (A3AR H95F^3.37; log [agonist] -4): 0.03491 and 0.05099 and 0.06294
- Gαi1 activation response (Figure 7F), individual replicates (A3AR H95F^3.37; log [agonist] -5): 0.01638 and 0.04515 and 0.03044
- Gαi1 activation response (Figure 7F), individual replicates (A3AR H95F^3.37; log [agonist] -6): 0.01795 and 0.02273 and 0.02037
- Gαi1 activation response (Figure 7F), individual replicates (A3AR H95F^3.37; log [agonist] -7): 0.02917 and 0.01651 and 0.04473
- Gαi1 activation response (Figure 7F), individual replicates (A3AR H95F^3.37; log [agonist] -8): 0.01844 and 0.06153 and 0.04217
- Gαi1 activation response (Figure 7F), individual replicates (A3AR H95F^3.37; log [agonist] -9): 0.02564 and 0.03775 and 0.0773
- remaining activity at 10 µM (Nluc-A3AR S73A^2.65; log[adenosine] -5): 82.6%
- remaining activity at 1 µM (Nluc-A3AR S73A^2.65; log[adenosine] -6): 100%
- remaining activity at 0.1 µM (Nluc-A3AR S73A^2.65; log[adenosine] -7): 100%
- remaining activity at 0.01 µM (Nluc-A3AR S73A^2.65; log[adenosine] -8): 100%
- ∆∆BRET Emax (A3AR S271A^7.42): 0.70 ± 0.15
- remaining activity at 1 µM (Nluc-A3AR WT; log[adenosine] -6): 103%
- remaining activity at 0.1 µM (Nluc-A3AR WT; log[adenosine] -7): 102%
- remaining activity at 0.01 µM (Nluc-A3AR WT; log[adenosine] -8): 100%
- remaining activity at 0.01 µM (Nluc-A3AR Y15A^1.35): 100%
- remaining activity at 100 µM (Nluc-A3AR Y265A^7.36; log[adenosine] -4): 69.6%
- remaining activity at 10 µM (Nluc-A3AR Y265A^7.36; log[adenosine] -5): 94.1%
- remaining activity at 1 µM (Nluc-A3AR Y265A^7.36; log[adenosine] -6): 97.4%
- remaining activity at 0.1 µM (Nluc-A3AR Y265A^7.36; log[adenosine] -7): 99.2%
- remaining activity at 0.01 µM (Nluc-A3AR Y265A^7.36; log[adenosine] -8): 100%
- remaining activity at 1000 µM (Nluc-A3AR H95A^3.37; log[adenosine] -3): 24%
- remaining activity at 100 µM (Nluc-A3AR H95A^3.37; log[adenosine] -4): 82.5%
- remaining activity at 10 µM (Nluc-A3AR H95A^3.37; log[adenosine] -5): 97.8%
- remaining activity at 1 µM (Nluc-A3AR H95A^3.37; log[adenosine] -6): 105%
- remaining activity at 0.1 µM (Nluc-A3AR H95A^3.37; log[adenosine] -7): 95.8%
- remaining activity at 0.01 µM (Nluc-A3AR H95A^3.37; log[adenosine] -8): 100%
- remaining activity at 1 µM (Nluc-A3AR T94A^3.36; log[adenosine] -6): 100%
- remaining activity at 0.1 µM (Nluc-A3AR T94A^3.36; log[adenosine] -7): 103%
- remaining activity at 0.01 µM (Nluc-A3AR T94A^3.36; log[adenosine] -8): 100%
- remaining activity at 0.01 µM (Nluc-A3AR H95F^3.37): 100%
- remaining activity at 100 µM (Nluc-A3AR V169E^45.53; log[adenosine] -4): 37.3%
- remaining activity at 10 µM (Nluc-A3AR V169E^45.53; log[adenosine] -5): 78.7%
- remaining activity at 1 µM (Nluc-A3AR V169E^45.53; log[adenosine] -6): 98%
- remaining activity at 0.1 µM (Nluc-A3AR V169E^45.53; log[adenosine] -7): 95.5%
- remaining activity at 0.01 µM (Nluc-A3AR V169E^45.53; log[adenosine] -8): 100%
- log τ (efficacy, operational model, corrected for receptor expression) (A3AR S73A^2.65): 1.4 ± 0.07
- ∆∆BRET Emax (A3AR S73A^2.65): 1.49 ± 0.04
- remaining activity at 1000 µM (Nluc-A3AR S271A^7.42; log[adenosine] -3): 90.4%
- remaining activity at 100 µM (Nluc-A3AR S271A^7.42; log[adenosine] -4): 102%
- remaining activity at 10 µM (Nluc-A3AR S271A^7.42; log[adenosine] -5): 100%
- remaining activity at 1 µM (Nluc-A3AR S271A^7.42; log[adenosine] -6): 104%
- remaining activity at 0.1 µM (Nluc-A3AR S271A^7.42; log[adenosine] -7): 105%
- remaining activity at 0.01 µM (Nluc-A3AR S271A^7.42; log[adenosine] -8): 100%

— PMC12361428 (Nature Communications, 2025)
